For assay [1], the target named is T1, Histone-lysine N-methyltransferase NSD2 (Homo sapiens, UniProt O96028).
T1 sequence (O96028 whole entry): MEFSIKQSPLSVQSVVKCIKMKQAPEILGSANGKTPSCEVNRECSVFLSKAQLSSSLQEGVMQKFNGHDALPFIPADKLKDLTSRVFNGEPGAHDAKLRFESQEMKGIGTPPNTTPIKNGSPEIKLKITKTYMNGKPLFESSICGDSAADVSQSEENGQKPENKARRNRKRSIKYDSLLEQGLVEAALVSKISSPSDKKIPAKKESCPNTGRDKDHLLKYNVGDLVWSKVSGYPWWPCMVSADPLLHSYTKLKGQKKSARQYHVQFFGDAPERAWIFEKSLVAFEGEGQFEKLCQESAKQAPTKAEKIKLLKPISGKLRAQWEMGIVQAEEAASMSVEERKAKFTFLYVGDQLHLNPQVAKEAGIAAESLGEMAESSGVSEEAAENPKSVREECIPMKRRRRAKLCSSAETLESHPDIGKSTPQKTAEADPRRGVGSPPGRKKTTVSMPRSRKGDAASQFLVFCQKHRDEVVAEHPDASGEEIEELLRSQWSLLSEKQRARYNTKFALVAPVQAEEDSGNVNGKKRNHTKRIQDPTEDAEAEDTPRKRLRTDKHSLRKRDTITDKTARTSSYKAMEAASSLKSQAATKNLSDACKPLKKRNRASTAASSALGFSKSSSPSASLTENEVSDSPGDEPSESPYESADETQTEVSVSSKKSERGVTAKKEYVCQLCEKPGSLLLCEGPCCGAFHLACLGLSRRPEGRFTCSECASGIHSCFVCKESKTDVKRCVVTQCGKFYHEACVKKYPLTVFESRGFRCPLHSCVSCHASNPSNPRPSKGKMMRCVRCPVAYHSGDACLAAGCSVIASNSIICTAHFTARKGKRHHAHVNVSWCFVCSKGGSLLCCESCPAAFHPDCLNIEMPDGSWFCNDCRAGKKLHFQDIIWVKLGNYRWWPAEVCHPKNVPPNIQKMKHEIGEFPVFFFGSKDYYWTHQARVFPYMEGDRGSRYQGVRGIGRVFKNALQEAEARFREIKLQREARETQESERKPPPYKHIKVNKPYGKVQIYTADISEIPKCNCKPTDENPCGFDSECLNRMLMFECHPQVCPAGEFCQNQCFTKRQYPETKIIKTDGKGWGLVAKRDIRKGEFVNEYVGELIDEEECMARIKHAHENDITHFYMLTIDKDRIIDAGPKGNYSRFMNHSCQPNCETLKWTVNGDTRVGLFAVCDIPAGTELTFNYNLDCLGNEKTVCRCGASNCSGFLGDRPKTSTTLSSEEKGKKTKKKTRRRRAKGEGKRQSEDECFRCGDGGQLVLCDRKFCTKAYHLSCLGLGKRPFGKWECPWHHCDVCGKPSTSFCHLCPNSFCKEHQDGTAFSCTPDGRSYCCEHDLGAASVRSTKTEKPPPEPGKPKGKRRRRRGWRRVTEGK
In kind it is biochemical.

Assay [2] deals with Serine/threonine-protein kinase Nek4 (Homo sapiens, UniProt P51957). In kind it is functional.
Sequence of Serine/threonine-protein kinase Nek4 (P51957 whole entry): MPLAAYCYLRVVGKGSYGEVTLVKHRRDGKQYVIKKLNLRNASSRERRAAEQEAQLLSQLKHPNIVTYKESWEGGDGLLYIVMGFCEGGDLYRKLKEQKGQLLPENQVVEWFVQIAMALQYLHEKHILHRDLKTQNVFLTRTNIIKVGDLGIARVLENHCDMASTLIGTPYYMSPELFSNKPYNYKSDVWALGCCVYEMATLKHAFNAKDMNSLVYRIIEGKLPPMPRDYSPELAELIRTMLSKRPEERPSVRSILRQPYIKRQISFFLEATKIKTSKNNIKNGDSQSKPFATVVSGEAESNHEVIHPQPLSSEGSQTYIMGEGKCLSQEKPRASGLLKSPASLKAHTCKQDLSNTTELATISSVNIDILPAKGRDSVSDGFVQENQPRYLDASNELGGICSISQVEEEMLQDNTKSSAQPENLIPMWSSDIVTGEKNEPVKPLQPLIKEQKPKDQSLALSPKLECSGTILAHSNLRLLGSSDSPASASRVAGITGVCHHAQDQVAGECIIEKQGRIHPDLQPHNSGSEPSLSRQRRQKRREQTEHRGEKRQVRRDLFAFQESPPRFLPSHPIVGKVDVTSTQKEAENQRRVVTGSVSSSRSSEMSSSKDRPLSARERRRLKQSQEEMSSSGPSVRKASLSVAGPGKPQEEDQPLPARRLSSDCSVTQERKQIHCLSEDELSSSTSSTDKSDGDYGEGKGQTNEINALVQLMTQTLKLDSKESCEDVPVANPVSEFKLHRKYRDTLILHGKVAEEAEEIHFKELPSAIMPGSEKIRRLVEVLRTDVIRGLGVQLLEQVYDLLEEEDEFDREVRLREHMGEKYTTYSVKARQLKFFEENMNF
Assay [3] deals with Serine/threonine-protein kinase BRSK1 (Homo sapiens, UniProt Q8TDC3). In kind it is functional.
The target in assay [4] is Megakaryocyte-associated tyrosine-protein kinase (Homo sapiens, UniProt P42679). Format: functional.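 Note: affinity measured as one member of a kinase panel (Navigating the Kinome) against MATK.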
Assay [5] concerns the target Mitogen-activated protein kinase 14 (Homo sapiens, UniProt Q16539). In kind it is functional.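 Note: part of a kinome-wide panel, MAPK14 entry.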
Assay [6] has as its target High affinity nerve growth factor receptor (Homo sapiens, UniProt P04629). In kind it is functional.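 Note: NTRK1 tested as one member of a kinome-wide profiling panel.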
In assay [7] the target is Serine/threonine-protein kinase PAK 1 (Homo sapiens, UniProt Q13153). Format: functional.
Assay [8] addresses STE20-like serine/threonine-protein kinase (Homo sapiens, UniProt Q9H2G2). In kind it is functional.
In assay [9] the target is Hepatocyte growth factor receptor (Homo sapiens, UniProt P08581). In kind it is functional.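 Note: kinase panel profiling across the kinome, with MET as the panel member.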
Sequence of Hepatocyte growth factor receptor (P08581 whole entry): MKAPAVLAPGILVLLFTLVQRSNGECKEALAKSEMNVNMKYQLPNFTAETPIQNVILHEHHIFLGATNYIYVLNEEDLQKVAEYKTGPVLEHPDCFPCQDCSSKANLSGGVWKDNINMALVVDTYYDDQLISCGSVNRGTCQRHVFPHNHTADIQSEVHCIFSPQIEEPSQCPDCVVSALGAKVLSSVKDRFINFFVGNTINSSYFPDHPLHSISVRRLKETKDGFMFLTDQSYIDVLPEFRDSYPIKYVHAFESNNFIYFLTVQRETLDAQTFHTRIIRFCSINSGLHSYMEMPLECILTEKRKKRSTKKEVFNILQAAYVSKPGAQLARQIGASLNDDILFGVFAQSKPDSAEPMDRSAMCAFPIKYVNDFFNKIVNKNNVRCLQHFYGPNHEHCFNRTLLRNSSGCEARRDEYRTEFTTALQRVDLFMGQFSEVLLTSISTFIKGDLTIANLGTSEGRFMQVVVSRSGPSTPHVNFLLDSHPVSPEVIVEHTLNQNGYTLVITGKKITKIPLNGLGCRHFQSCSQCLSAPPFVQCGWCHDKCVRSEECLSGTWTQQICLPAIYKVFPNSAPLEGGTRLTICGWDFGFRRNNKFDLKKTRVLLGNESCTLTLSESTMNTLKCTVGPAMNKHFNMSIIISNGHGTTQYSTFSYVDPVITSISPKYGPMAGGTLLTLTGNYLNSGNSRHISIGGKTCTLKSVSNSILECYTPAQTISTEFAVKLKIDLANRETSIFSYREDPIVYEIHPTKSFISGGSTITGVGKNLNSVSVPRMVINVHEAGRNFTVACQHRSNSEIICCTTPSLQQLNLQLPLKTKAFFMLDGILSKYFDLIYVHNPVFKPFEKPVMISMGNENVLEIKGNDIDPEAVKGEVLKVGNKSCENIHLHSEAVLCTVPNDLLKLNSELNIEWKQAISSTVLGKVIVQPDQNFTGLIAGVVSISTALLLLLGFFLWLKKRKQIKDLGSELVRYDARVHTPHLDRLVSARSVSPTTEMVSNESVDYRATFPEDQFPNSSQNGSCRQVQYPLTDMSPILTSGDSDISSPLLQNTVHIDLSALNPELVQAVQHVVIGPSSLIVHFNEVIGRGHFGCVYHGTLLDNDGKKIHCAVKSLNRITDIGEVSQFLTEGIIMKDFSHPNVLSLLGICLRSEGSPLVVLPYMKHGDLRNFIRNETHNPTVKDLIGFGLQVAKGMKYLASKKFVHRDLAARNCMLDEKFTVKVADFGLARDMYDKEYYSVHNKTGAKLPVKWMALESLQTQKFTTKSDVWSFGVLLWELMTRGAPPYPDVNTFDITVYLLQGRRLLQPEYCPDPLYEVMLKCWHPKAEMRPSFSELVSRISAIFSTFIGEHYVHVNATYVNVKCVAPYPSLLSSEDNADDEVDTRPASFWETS
The target in assay [10] is Mitogen-activated protein kinase kinase kinase kinase 2 (Homo sapiens, UniProt Q12851). Format: functional.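 Note: measured as one member of a kinome-wide kinase panel, with MAP4K2 as the panel entry.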
Sequence of Mitogen-activated protein kinase kinase kinase kinase 2 (Q12851 whole entry): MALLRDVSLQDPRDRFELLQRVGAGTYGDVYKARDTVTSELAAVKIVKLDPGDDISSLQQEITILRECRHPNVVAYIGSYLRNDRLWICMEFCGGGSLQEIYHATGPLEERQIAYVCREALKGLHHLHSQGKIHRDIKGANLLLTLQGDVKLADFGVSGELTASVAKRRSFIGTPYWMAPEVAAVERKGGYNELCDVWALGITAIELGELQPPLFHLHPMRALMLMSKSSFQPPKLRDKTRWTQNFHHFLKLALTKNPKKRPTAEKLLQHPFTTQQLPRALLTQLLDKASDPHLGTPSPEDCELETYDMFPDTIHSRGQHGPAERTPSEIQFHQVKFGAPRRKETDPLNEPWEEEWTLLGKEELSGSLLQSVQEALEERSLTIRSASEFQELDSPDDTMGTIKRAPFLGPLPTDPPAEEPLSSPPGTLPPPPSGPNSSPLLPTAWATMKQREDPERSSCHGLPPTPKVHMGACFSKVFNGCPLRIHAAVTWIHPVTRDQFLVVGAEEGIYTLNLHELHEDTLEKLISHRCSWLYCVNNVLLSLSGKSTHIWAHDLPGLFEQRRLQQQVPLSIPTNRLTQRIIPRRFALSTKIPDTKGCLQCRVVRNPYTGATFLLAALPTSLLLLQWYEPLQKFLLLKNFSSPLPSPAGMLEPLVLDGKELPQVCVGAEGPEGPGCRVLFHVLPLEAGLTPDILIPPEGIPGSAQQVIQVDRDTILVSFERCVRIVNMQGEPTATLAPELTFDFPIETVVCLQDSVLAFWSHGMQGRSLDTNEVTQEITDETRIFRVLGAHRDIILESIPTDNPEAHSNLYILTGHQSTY
Assay [11] concerns the target G protein-coupled receptor kinase 5 (Homo sapiens, UniProt P34947). In words: Navigating the Kinome. Panel member name: GPRK5. Format: functional.
Assay [12] deals with Dual specificity tyrosine-phosphorylation-regulated kinase 4 (Homo sapiens, UniProt Q9NR20). In kind it is functional.
Assay [13] concerns the target Tyrosine-protein kinase Fer (Homo sapiens, UniProt P16591). In kind it is functional.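 Note: FER tested as one member of a kinome panel.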

Molecules are shown by their SMILES. Calls of active or inactive are those of the source.

Sequence of STE20-like serine/threonine-protein kinase (Q9H2G2 whole entry): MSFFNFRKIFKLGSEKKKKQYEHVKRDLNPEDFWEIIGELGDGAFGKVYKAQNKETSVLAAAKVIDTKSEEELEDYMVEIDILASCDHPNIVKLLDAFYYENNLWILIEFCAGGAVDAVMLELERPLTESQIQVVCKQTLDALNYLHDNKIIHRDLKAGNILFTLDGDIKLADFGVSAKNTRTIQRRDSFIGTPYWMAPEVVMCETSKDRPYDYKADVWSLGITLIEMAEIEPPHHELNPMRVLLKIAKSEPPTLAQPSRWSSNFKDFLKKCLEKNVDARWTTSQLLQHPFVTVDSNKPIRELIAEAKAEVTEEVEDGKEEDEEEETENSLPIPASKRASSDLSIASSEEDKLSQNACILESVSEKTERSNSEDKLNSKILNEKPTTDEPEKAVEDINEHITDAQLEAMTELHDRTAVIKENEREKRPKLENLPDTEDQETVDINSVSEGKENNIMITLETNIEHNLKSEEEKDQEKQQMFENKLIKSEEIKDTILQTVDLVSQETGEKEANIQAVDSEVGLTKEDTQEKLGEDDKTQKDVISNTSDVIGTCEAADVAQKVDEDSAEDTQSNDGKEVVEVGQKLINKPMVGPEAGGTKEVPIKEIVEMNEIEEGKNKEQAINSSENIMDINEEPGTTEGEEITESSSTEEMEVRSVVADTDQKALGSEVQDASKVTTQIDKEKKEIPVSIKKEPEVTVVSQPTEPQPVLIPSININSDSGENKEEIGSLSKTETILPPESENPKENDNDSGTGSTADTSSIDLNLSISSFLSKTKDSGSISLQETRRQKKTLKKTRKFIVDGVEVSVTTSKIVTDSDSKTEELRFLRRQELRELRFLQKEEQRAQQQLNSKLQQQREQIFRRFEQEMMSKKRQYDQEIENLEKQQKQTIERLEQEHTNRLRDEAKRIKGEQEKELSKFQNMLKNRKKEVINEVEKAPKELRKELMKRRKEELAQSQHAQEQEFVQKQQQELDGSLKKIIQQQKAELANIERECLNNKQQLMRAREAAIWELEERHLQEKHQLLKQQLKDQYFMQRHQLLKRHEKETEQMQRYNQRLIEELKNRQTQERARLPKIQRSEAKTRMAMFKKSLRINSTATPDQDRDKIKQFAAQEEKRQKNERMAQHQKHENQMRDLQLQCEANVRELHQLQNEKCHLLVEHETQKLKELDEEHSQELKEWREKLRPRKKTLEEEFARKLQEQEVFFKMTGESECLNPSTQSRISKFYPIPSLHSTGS
Sequence of Mitogen-activated protein kinase 14 (Q16539 whole entry): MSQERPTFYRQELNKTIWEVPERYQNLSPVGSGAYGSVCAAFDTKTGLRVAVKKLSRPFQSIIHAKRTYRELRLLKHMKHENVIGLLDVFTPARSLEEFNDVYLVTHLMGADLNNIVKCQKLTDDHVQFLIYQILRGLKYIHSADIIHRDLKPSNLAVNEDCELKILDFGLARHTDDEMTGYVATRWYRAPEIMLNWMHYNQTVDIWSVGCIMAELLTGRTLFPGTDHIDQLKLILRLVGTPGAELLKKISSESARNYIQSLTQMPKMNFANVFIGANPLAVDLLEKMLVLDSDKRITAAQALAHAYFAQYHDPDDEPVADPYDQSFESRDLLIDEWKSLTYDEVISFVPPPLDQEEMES

Broadly, the AC50 is the midpoint of the concentration-response curve, whichever way the signal moves. As to `CCCn1nc([N+](=O)[O-])c(C(C#N)c2nc3ccccc3s2)c(Cl)c1=O` (stereo not drawn), the AC50 in assay [1] is > 20000 nM (inactive).

By Ki is commonly meant a measure of affinity in units of concentration, obtained from inhibition or displacement. For the compound `NCCCn1cc(-c2cc(-c3cc4ccccc4s3)c3[nH]ncc3c2)c2nc(N)ncc21`, the Ki in assay [2] is 200 nM (active); in [3], 79.4 nM (active); in assay [4], > 2000 nM (inactive); in assay [5], > 3980 nM (inactive); in [6], > 2510 nM (inactive); in assay [7], 63.1 nM (active). Besides, the Ki in assay [8] was 126 nM (active); in [9], > 2000 nM (inactive); in assay [10], > 1580 nM (inactive); in assay [11], > 3980 nM (inactive); in assay [12] it was 794 nM (active); in assay [13], > 1580 nM (inactive).
